We go through two molecules from ChEMBL document CHEMBL1146623, “Two antiviral compounds from the plant Stylogne cauliflora as inhibitors of HCV NS3 protease” (Bioorg Med Chem Lett, 2003).

The structures appear in SMILES notation.

Test [1] addresses T1, NS3 (Hepatitis C virus, UniProt A3EZJ3). Briefly: Inhibitory activity evaluated in the HCV NS3 protease activity assay. Set-up: species or system Hepacivirus hominis.
The target in test [2] is T1, NS3. Description: Inhibitory activity evaluated in the HCV NS3 protease assay. Also on record: species or system Hepacivirus hominis.

T1 sequence (A3EZJ3 whole entry): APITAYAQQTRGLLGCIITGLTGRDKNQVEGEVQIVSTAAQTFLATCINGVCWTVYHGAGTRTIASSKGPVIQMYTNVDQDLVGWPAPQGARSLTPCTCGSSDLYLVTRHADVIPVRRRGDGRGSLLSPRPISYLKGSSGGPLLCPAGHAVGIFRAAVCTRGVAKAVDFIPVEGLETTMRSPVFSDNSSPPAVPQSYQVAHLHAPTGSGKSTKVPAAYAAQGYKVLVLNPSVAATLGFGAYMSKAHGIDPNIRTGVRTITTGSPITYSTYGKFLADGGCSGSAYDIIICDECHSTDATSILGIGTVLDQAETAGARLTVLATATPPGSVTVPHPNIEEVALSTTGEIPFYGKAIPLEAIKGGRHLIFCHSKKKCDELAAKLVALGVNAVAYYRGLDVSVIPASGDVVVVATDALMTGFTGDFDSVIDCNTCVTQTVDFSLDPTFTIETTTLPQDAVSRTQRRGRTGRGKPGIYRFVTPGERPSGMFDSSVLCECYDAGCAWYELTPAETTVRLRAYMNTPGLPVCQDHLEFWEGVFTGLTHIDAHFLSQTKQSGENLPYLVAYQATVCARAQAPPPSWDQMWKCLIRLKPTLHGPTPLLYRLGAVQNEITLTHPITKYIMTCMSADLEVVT

For orientation: IC50 means the concentration that inhibits the measured activity by half. Read a high IC50 as lower potency. In test [1], `O=C1OC[C@H]2O[C@@H](Oc3cc(O)c4c(c3)OC(c3ccccc3)CC4=O)[C@H](O)[C@@H](O)[C@@H]2OC(=O)c2cc(O)c(O)c(O)c2-c2c1cc(O)c(O)c2O` (some centres not stated) showed an IC50 of 300 nM.
As to `O=C1OC[C@H]2O[C@@H](Oc3cc(O)c(C(=O)CCc4ccccc4)c(O)c3)[C@H](O)[C@@H](O)[C@@H]2OC(=O)c2cc(O)c(O)c(O)c2-c2c1cc(O)c(O)c2O` [THONNINGIANIN B], in test [2], the half-inhibitory concentration (IC50) was determined as 800 nM.
